Reference: patent US9290427B2, “Anti-invasive compounds” (Universiteit Gent, priority 2012, dated 2016)

Tests used:
[1] = test system: MCF-7/6 mammary carcinoma cells; set-up: unit not given here; conditions: training set compounds 1-34, Indo-Belgian screening program; class = log cmin, lowest concentration with invasion grade I or II; cited from earlier work

In the case of `COc1cc(OC)c(C(=O)/C=C/c2ccc3c(c2CCc2ccccc2)CCC(C)(C)O3)cc1CC=C(C)C` [Compound 5, (2E)-1-[2,4-Dimethoxy-5-(3-methylbut-2-enyl)phenyl]-3-(2,2-dimethyl-5-phenethylchroman-6-yl)propenone], the Actual class [1] is listed as 1 (about 10).

For `CC1(C)CCc2c(O)c(C(=O)/C=C/c3ccc(Oc4ccccc4)cc3)c3c(c2O1)CCC(C)(C)O3` [Compound 6, (2E)-1-(5-Hydroxy-2,2,8,8-tetramethyl-3,4,9,10-tetrahydro-2H,8H-pyrano[2,3-f]chromen-6-yl)-3-(4-phenoxypheny)propenone], the Actual class [1] is given as 3 (>100).

For `COc1ccc(/C=C/C(=O)c2c(O)c3c(c4c2OC(C)(C)CC4)OC(C)(C)CC3)cc1OCc1ccccc1` [Compound 7, (2E)-3-(3-Benzyloxy-4-methoxy-phenyl)-1-(5-hydroxy-2,2,8,8-tetramethyl-3,4,9,10-tetrahydro-2H,8H-pyrano[2,3-f]chromen-6-yl)propenone], the Actual class [1] is listed as 3 (>100).

For `CC(C)c1ccc(/C=C/C(=O)c2c(O)c3c(c4c2OC(C)(C)CC4)OC(C)(C)CC3)cc1` [Compound 8, (2E)-1-(5-Hydroxy-2,2,8,8-tetramethyl-3,4,9,10-tetrahydro-2H,8H-pyrano[2,3-f]chromen-6-yl)-3-(4-isopropylphenyl)propenone], the Actual class [1] is given as 3 (>100).

For `COc1cccc(/C=C/C(=O)c2cc3c(cc2O)OC(C)(C)C(O)C3)c1OC` (centres unmarked) [Compound 9, (2E)-1-(3,7-Dihydroxy-2,2-dimethylchroman-6-yl)-3-(2,3-dimethoxy-phenyl)propenone], the Actual class [1] is listed as 1 (about 10).

In the case of `COc1cc(OC)c(C(=O)/C=C/c2ccc([N+](=O)[O-])cc2)cc1CC=C(C)C` [Compound 10, (2E)-3-(4-nitrophenyl)-1-(2′,4′-dimethoxy-5′-(3-methylbut-2-enyl)phenyl)propenone], the Actual class [1] is given as 3 (>100).

In the case of `COc1cc(OC)c(C(=O)/C=C/c2ccccc2)c(O)c1CC=C(C)C` [Compound 11, (2E)-3-phenyl-1-(2′-hydroxy-4′,6′-dimethoxy-3′-(3-methylbut-2-enyl)phenyl)propenone], the Actual class [1] is given as 2 (about 100).

In the case of `COc1ccc(/C=C/C(=O)c2cc3c(cc2O)OC(C)(C)C(O)C3)c(OC)c1` (centres unmarked) [Compound 12, (2E)-1-(3,7-Dihydroxy-2,2-dimethylchroman-6-yl)-3-(2,4-dimethoxy-phenyl)propenone], the Actual class [1] is given as 1 (about 10).

In the case of `COc1cc(/C=C/C(=O)c2ccc(OCc3ccccc3)c(OCc3ccccc3)c2)ccc1OCc1ccccc1` [Compound 13, (2E)-3-(4-Benzyloxy-3-methoxyphenyl)-1-(3,4-bis-benzyloxyphenyl)propenone], the Actual class [1] is listed as 1 (about 10).

In the case of `COc1cc(OC)c(C(=O)/C=C/c2ccc(C(C)C)cc2)cc1CC=C(C)C` [Compound 14, (2E)-3-(4-(1-methylethyl)phenyl)-1-(2′,4′-dimethoxy-5′-(3-methylbut-2-enyl)phenyl)propenone], the Actual class [1] is listed as 1 (about 10).

For `COc1cc(OC)c(C(=O)/C=C/c2ccccc2)c(OC)c1CC=C(C)C` [Compound 15, (2E)-3-phenyl-1-(2′,4′,6′-trimethoxy-3′-(3-methylbut-2-enyl)phenyl)propenone], the Actual class [1] is listed as 3 (>100).

In the case of `COc1ccc(C(=O)/C=C/c2ccc(C)cc2)cc1OC` [Compound 16, (2E)-3-(4-methylphenyl)-1-(3′,4′-dimethoxyphenyl)propenone], the Actual class [1] is given as 2 (about 100).

In the case of `COc1cc(OC)c(C(=O)/C=C/c2ccccc2)c(O)c1OC` [Compound 17, (2E)-3-phenyl-1-(2′-hydroxy-3′,4′,6′-trimethoxyphenyl)propenone], the Actual class [1] is listed as 2 (about 100).

For `COc1cc(OC)c(C(=O)/C=C/c2ccccc2)cc1CC=C(C)C` [Compound 18, (2E)-3-phenyl-1-(2′,4′-dimethoxy-5′-(3-methylbut-2-enyl)phenyl)propenone], the Actual class [1] is listed as 0 (about 1).

For `COc1cc(OC)c(C(=O)/C=C/c2ccc(OC)c(OC)c2)cc1CC=C(C)C` [Compound 19, (2E)-3-(3,4-dimethoxyphenyl)-1-(2′,4′-dimethoxy-5′-(3-methylbut-2-enyl)phenyl)propenone], the Actual class [1] is listed as 1 (about 10).

For `COc1ccc(C(=O)/C=C/c2ccc([N+](=O)[O-])cc2)cc1OC` [Compound 20, (2E)-3-(4-nitrophenyl)-1-(3′,4′-dimethoxyphenyl)propenone], the Actual class [1] is given as 3 (>100).

In the case of `COc1cc(O)c(C(=O)/C=C/c2ccccc2)c(OC)c1OC` [Compound 21, (2E)-3-phenyl-1-(6′-hydroxy-2′,3′,4′-trimethoxyphenyl)propenone], the Actual class [1] is listed as 0 (about 1).

In the case of `COc1ccc(/C=C/C(=O)c2ccc3c(c2)OCO3)c(OC)c1` [Compound 22, (2E)-1-Benzo[1,3]dioxol-5-yl-3-(2,4-dimethoxyphenyl)propenone], the Actual class [1] is given as 2 (about 100).

For `COc1ccc(/C=C/C(=O)c2cc3c(cc2O)OC(C)(C)CC3)cc1OC` [Compound 23, (2E)-3-(3,4-Dimethoxyphenyl)-1-(7-hydroxy-2,2-dimethylchroman-6-yl)propenone], the Actual class [1] is listed as 2 (about 100).

For `COc1cc(OC)c(C(=O)/C=C/c2ccccc2)c2c1CC(O)C(C)(C)O2` (centres unmarked) [Compound 24, (2E)-1-(3-Hydroxy-5,7-dimethoxy-2,2-dimethylchroman-8-yl)-3-phenylpropenone], the Actual class [1] is given as 0 (about 1).

In the case of `COc1cccc(/C=C/C(=O)c2ccc3c(c2)OCO3)c1OC` [Compound 26, (2E)-1-Benzo[1,3]dioxol-5-yl-3-(2,3-dimethoxyphenyl)propenone], the Actual class [1] is given as 1 (about 10).

In the case of `COc1cc(O)c(CC=C(C)C)c(O)c1C(=O)/C=C/c1ccc(O)cc1` [Compound 27, (2E)-3-(4-hydroxyphenyl)-1-(2′,4′-dihydroxy-6′-methoxy-3′-(3-methylbut-2-enyl)phenyl)propenone], the Actual class [1] is listed as 0 (about 1).

In the case of `C=CCOc1c(OC)cc(O)c(C(=O)/C=C/c2ccc(O)cc2)c1OC` [Compound 28, (2E)-3-(4-hydroxyphenyl)-1-(6′-hydroxy-2′,4′-dimethoxy-3′-(2-propenyloxy)phenyl)propenone], the Actual class [1] is given as 1 (about 10).

In the case of `COc1ccc(/C=C/C(=O)c2cc3c(cc2OC)OC(C)(C)C(O)C3)c(OC)c1` (centres unmarked) [Compound 29, (2E)-3-(2,4-Dimethoxyphenyl)-1-(3-hydroxy-7-methoxy-2,2-dimethylchroman-6-yl)-propenone], the Actual class [1] is listed as 3 (>100).

In the case of `COc1ccc(/C=C/C(=O)c2cc3c(cc2O)OC(C)(C)C=C3)c(OC)c1` [Compound 30, (2E)-3-(2,4-Dimethoxyphenyl)-1-(7-hydroxy-2,2-dimethyl-2H-chromen-6-yl)propenone], the Actual class [1] is listed as 3 (>100).

In the case of `COc1ccc(C(=O)/C=C/c2ccc(C(C)C)cc2)cc1OC` [Compound 31, (2E)-3-(4-(1-methylethyl)phenyl)-1-(3′,4′-dimethoxyphenyl)propenone], the Actual class [1] is given as 3 (>100).

For `COc1ccc(C(=O)/C=C/c2cccc(Oc3ccccc3)c2)cc1OC` [Compound 32, (2E)-3-(3-phenoxyphenyl)-1-(3′,4′-dimethoxyphenyl)propenone], the Actual class [1] is listed as 3 (>100).

In the case of `COc1ccc(/C=C/C(=O)c2cc(CC=C(C)C)c(OC)cc2OC)c(OC)c1` [Compound 33, (2E)-3-(2,4-dimethoxyphenyl)-1-(2′,4′-dimethoxy-5′-(3-methylbut-2-enyl)phenyl)propenone], the Actual class [1] is given as 3 (>100).

In the case of `COc1cc(OC)c(C(=O)/C=C/c2cccc(Oc3ccccc3)c2)cc1CC=C(C)C` [Compound 34, (2E)-3-(3-phenoxyphenyl)-1-(2′,4′-dimethoxy-5′-(3-methylbut-2-enyl)phenyl)propenone], the Actual class [1] is listed as 3 (>100).

`Fc1ccc(/C=C/c2ccc(F)cc2)cc1` [Compound 90, (E)-4,4′-Difluorostilbene] gave a melting point of 116 to 117 °C.

For `Fc1ccc(/C=C/c2cccc(F)c2)cc1` [Compound 98, (E)-3,4′-Difluorostilbene], the melting point was 92 to 93 °C.

In the case of `COc1cccc(/C=C/c2ccc(Cl)cc2)c1` [Compound 99, (E)-4′-Chloro-3-methoxystilbene], the melting point is reported as 71 to 72 °C.
